Experimental data reported in PMC3445516 (PLoS ONE, 2012).
Like-named read-outs stand apart in the source and are kept apart here.

Tests used:
Test in all cases: Ambit kinase profiling, competition binding
BMPR1B = target: T1, BMPR1B (Homo sapiens, UniProt O00238)
T1 construct: purchased Ambit Biosciences (KINOMEscan)
Method: (§1) Also included in the kinase profile are four isoforms of PKC (δ, ε, η, θ) and eight isoforms of CAMKs (CAMKIα, δ, γ; CAMKIIα, β, δ, γ; CAMK4).
(§2) The global kinase profiling experiment was performed by Ambit Biosciences.

PKC ε = target: T2, PKC ε (Homo sapiens, UniProt Q02156); details: for competition: PKC ε, 10 µM
T2 construct: purchased Ambit Biosciences (KINOMEscan)
T2 sequence (Q02156 1-737): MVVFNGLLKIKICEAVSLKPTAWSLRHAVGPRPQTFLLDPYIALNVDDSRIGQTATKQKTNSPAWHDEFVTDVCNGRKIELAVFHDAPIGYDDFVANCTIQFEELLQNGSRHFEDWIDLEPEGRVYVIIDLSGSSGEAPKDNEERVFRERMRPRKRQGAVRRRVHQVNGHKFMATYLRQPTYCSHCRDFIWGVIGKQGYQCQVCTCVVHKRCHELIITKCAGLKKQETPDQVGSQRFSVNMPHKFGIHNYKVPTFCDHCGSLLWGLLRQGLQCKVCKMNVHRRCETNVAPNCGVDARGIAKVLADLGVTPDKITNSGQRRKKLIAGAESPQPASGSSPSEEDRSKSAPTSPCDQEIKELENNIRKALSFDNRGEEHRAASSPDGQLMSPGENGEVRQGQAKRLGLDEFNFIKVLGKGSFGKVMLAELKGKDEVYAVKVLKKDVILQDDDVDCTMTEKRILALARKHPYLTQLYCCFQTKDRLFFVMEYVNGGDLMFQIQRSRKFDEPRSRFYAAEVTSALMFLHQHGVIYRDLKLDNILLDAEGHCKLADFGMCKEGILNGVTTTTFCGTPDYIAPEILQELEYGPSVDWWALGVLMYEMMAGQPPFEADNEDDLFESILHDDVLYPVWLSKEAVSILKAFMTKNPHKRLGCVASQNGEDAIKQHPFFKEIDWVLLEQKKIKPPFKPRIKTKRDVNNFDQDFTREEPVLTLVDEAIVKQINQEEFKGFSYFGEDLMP
Method: as §1, §2

LATS2 = target: T3, LATS2 (Homo sapiens, UniProt Q9NRM7); details: for % Competition: 10 µM
T3 construct: purchased Ambit Biosciences (KINOMEscan)
T3 sequence (Q9NRM7 1-1088): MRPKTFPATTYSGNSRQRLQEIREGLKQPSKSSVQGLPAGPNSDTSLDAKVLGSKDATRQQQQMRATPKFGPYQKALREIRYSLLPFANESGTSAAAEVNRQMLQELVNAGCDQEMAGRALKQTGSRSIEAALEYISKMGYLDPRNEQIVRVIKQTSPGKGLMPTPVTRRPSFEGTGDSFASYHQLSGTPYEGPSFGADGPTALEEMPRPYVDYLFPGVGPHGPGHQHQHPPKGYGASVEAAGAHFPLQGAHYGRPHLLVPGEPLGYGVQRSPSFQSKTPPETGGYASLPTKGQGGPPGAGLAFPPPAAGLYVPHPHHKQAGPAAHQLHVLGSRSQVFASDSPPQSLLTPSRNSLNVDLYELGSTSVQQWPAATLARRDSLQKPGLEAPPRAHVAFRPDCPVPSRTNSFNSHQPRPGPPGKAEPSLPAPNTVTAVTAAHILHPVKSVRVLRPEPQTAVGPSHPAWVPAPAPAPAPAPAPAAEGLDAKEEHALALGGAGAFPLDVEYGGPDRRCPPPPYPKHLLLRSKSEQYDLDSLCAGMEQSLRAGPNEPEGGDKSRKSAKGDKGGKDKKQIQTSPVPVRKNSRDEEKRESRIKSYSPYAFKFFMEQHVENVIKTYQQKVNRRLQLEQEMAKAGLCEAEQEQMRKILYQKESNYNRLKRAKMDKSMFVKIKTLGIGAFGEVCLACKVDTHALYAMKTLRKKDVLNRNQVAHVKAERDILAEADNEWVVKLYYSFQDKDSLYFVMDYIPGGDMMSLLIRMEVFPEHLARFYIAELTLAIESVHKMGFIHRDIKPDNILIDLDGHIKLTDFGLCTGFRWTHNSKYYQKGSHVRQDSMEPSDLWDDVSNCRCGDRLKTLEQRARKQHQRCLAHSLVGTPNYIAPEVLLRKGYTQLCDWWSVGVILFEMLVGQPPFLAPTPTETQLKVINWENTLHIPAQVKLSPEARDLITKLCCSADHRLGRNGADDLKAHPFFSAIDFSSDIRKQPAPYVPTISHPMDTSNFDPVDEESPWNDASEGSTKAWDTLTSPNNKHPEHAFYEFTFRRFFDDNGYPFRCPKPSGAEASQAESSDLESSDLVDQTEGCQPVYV
Method: as §1, §2

TTK = target: T4, TTK (Homo sapiens, UniProt P33981)
T4 construct: purchased Ambit Biosciences (KINOMEscan)
T4 sequence (P33981 1-857): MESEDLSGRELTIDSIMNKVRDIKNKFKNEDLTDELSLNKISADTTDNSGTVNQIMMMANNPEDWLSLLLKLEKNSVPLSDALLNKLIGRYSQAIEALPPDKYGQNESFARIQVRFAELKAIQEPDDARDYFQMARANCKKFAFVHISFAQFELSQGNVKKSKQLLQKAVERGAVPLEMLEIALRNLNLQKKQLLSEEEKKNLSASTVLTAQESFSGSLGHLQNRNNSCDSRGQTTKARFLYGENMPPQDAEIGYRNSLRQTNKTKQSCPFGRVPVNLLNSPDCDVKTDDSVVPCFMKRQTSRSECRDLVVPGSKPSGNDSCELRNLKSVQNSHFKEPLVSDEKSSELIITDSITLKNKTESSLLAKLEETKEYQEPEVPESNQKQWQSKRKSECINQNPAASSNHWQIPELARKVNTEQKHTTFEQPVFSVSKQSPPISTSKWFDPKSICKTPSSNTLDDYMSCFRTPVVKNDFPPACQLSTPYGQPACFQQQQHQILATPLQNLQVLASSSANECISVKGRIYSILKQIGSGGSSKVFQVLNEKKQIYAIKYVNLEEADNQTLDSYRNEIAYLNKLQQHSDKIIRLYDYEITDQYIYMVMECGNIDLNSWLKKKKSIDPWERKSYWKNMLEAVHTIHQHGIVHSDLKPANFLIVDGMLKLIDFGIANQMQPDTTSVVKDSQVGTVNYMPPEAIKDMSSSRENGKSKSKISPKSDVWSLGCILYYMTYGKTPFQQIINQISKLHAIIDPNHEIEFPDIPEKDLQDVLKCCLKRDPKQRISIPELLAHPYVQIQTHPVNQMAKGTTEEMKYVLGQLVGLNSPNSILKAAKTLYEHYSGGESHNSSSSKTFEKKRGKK
Method: as §1, §2

EGFR(S752-I759del) = target: T5, EGFR(S752-I759del) (Homo sapiens, UniProt P00533, DEL752-759); details: for % Competition: 10 µM
T5 construct: purchased Ambit Biosciences (KINOMEscan)
Method: as §1, §2

MST3 = target: T6, MST3 (Homo sapiens, UniProt Q9Y6E0); details: for % Competition: 10 µM
T6 construct: purchased Ambit Biosciences (KINOMEscan)
Method: as §1, §2

T1 sequence (O00238 14-502): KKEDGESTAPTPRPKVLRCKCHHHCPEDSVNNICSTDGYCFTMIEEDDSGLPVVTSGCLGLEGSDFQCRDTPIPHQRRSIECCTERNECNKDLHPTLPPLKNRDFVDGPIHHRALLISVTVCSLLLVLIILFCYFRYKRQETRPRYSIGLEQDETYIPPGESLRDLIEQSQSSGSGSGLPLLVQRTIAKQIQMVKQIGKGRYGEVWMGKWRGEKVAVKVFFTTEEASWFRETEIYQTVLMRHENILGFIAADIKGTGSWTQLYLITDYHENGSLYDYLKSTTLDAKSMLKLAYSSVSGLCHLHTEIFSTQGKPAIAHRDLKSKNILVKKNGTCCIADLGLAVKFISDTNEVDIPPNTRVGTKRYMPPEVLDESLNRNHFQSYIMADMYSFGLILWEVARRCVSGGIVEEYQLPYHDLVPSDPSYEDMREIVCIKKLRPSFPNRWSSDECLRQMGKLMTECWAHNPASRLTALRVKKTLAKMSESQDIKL
T6 sequence (Q9Y6E0 whole entry): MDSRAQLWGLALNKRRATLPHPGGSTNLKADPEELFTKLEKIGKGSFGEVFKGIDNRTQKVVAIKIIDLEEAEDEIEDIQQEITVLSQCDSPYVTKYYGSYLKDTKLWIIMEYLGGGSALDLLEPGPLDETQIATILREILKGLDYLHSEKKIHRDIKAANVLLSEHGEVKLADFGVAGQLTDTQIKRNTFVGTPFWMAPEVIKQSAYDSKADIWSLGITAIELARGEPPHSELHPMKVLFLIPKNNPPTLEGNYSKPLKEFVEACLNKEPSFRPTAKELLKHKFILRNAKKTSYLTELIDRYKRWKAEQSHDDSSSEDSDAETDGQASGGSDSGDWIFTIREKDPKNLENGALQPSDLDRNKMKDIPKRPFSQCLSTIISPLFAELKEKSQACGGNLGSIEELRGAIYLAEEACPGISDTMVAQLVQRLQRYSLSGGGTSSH

Compound	inhibition at 10 µM (BMPR1B; BMPR1B, 10 µM, read-out: % Competition) [%]	competition (PKC ε) [%]	% Competition (LATS2) [%]	inhibition at 10 µM (TTK; TTK, 10 µM, read-out: % Competition) [%]	% Competition (EGFR(S752-I759del)) [%]	% Competition (MST3) [%]	inhibition at 10 µM (BMPR1B; read-out: % Competition) [%]	inhibition at 10 µM (TTK; read-out: % Competition) [%]	inhibition at 10 µM (BMPR1B; BMPR1B, compound concentration 10 uM, read-out: Percent Competition) [%]	inhibition at 10 µM (PKC ε; PRKCE, compound concentration 10 uM, read-out: Percent Competition) [%]	Percent Competition (LATS2; compound concentration 10 uM) [%]	inhibition at 10 µM (TTK; TTK, compound concentration 10 uM, read-out: Percent Competition) [%]	Percent Competition (EGFR(S752-I759del); compound concentration 10 uM) [%]	Percent Competition (MST3; compound concentration 10 uM) [%]
Fc1ccc(-c2c(-c3ccncc3)[nH]c3nccnc23)cc1 [Compound 122]	81	< 50	82	88	98	68								
CC(O)CNc1cc(-c2[nH]c3cccnc3c2-c2ccc(F)cc2)ccn1 (stereo not drawn) [Compound 140]		< 50	<50		91	<50	< 50	90						
Fc1ccc(-c2c(-c3ccncc3)[nH]c3nccnc23)cc1 [RO1155697-000-005]									81	< 50	82	88	98	68
